# Test results taken from a melting point compilation (Tetko et al.; mined from patent text by program, amines drawn as free bases though some values may be those of a salt).
row,Compound,melting point
1,Cc1ccc(S(=O)(=O)C(=[N+]=[N-])C(=O)C(C)(C)C)cc1,120 to 122 °C
2,Oc1c(-c2ccc(F)cc2)nn2ccccc12,178 to 179 °C
3,O=C1N(CCO)c2ccccc2C(c2ccccc2)N1C1CCN(Cc2cccc(CO)c2)CC1 (configuration not stated),185 to 187 °C
4,COP(=O)(Nc1ccc([N+](=O)[O-])c(NCCc2ccccc2)c1)OC,128 °C
5,Cc1cc([N+](=O)[O-])cc(C)c1-c1ccc(-c2c(C)cc([N+](=O)[O-])cc2C)o1,156 to 158 °C
6,O=C(C=Cc1cccc(Cl)c1)c1ccccc1O,108 °C
7,CC1=N/C(=C\c2c[nH]c3ncc(Cl)cc23)C(=O)N1C,295 to 300 °C
8,Cn1c(=O)n(CC(=O)N(CCO)c2ccccc2)c2cnc(-c3ccccc3)nc21,231 to 233 °C
9,CC(C)(C)OC(=O)N1CCC[C@H]1COc1cnc(Cl)c(-c2ccc(Cl)cc2)c1,86 to 89 °C
10,O=[N+]([O-])c1ccc(Oc2ccc(O)cc2)cc1,173 to 174 °C
11,CCN(Cc1cc(Br)ccc1OCc1ccccc1)c1ncc(C(=O)NS(=O)(=O)c2ccccc2)s1,140 to 145 °C
12,CC1Cc2c(N=C=O)ccc(Cl)c2O1 (configuration not stated),169 to 171 °C
13,O=C1CC2c3ccccc3CCN2C2CCCC12 (configuration not stated),101 to 102 °C
14,COc1cc(C)nc(NC(=O)NS(=O)(=O)c2cccc3nc(C)sc23)n1,178 to 180 °C
15,Cc1ccc(C(=O)C2=C(O)C(=O)N(c3ccc(C)nn3)C2c2cccc(C(F)(F)F)c2)cc1 (configuration not stated),232 °C
16,O=C(NC[C@H]1CN(c2cc(F)c(N3CCC(n4ncnn4)CC3)c(F)c2)C(=O)O1)C(Cl)Cl,160 to 162 °C
17,O=[N+]([O-])c1ccc(O)c(CO)c1,112 to 114 °C
18,O=C(O)C1C2CNCC21 (configuration not stated),101 to 102 °C
19,CCOc1ccccc1CS(N)(=O)=O,92 to 93 °C
20,COc1ccc(CC(C)NC(C)=O)cc1OCc1ccccc1 (configuration not stated),139 °C
21,CCCc1c(OCc2cc(C=CC(=O)O)ccc2OC)ccc(C(C)=O)c1O,245 to 246 °C
22,O=c1c(CO)cc(-c2ccc3c(c2)CCO3)nn1Cc1ccc(Cl)cc1,129 to 134 °C
23,Nc1ccc(Oc2ccccc2)c(Cl)c1,31 to 33 °C

row,Compound,melting point
1,O=C(NCCCSc1ccncc1)c1ccco1,98 to 99 °C
2,CC(=Cc1ccc(O)cc1)c1ccc2c(c1)C(C)(C)C(O)C2(C)C (configuration not stated),148 to 149 °C
3,CC1=CC(COC(c2ccccc2)(c2ccccc2)c2ccccc2)O[C@H]1c1coc2c(N)ncnc12 (some centres not stated),128 to 132 °C
4,Cc1ccc(CC(CC(=O)N2CC3CC=CCC3C2)C(=O)O)cc1 (configuration not stated),140 to 141 °C
5,Fc1ccc2[nH]cc(CC3CCNCC3)c2c1,155 to 157 °C
6,COc1cccc(CC(=O)O)c1OCCCc1cn(-c2ccc(NC(=O)C(C)C)cn2)nc1C(C)C,122 to 123 °C
7,C/C(=C(\C#N)C(N)=S)N1CCC(C)CC1,156 to 159 °C
8,COc1cc(COc2nn(-c3ccccc3)cc2/C=C/c2coc(C(C)(C)C)n2)ccc1OCc1nc(-c2ccc(CC(=O)O)cc2)oc1C,104 to 106 °C
9,CC(C)[C@H](NC(=O)OCc1ccccc1)C(=O)NC(Cc1ccccc1)C(O)C(Cc1ccccc1)NC(=O)[C@@H](NC(=O)OCc1ccccn1)C(C)C (some centres not stated),194 to 195 °C
10,CCCCCCCCCCCc1nnc(CO)n1-c1ccccc1C(=O)c1ccccc1,111 to 112 °C
11,CC(C)OC(=O)C1C2CCC(C2)C1n1cc(F)c(=O)[nH]c1=O (configuration not stated),135 to 136 °C
12,COc1ccc(-c2ccnc3c(C(=O)c4cccs4)cnn23)cc1NC(=O)NC(C)C,202 to 204 °C
13,O=C(c1ccccc1)N(CCCn1cncn1)C1=Nc2cccc3cccc1c23,140 to 141 °C
14,CCN(C(=O)N1CCN(c2cc(OC)cc(OC)c2)CC1)c1nc(C)c(C)nc1OC,78 to 80 °C
15,CN1CCC(c2c[nH]c3ccc(OS(=O)(=O)c4c(F)cccc4F)cc23)CC1,214 to 215 °C
16,CN1CCOC(C2=C(C#N)C(c3cccc(C#N)c3Br)c3c[nH]nc3N2)C1 (configuration not stated),180 °C
17,Oc1cc(-c2c3ccccc3c(Br)c3sc4ccccc4c23)cc(Br)c1O,212 to 213 °C
18,CC1CC(=O)NN=C1c1ccc(C(=O)OC2CCCC2)cc1 (configuration not stated),120 to 122 °C
19,CN1Cc2ccccc2C(=O)c2cc(CC(=O)NO)ccc21,137 to 141 °C
20,Cc1cc(Cl)c2c(c1)C=C(C(=O)O)C(C(F)(F)F)O2 (configuration not stated),226 to 227 °C
21,CCCc1c(OCC2Cc3cc(C(=O)CCC(=O)O)ccc3O2)ccc(C(C)=O)c1O (configuration not stated),80 °C
22,CC(C)(C)OCCOc1cc(NC(=O)OC(C)(C)C)c(NC(=O)CC(=O)c2cccc(-n3ccnc3)c2)cc1C#Cc1ccc(F)cc1,62 to 65 °C

# The next lines start with the values.
row,melting point,Compound
1,144 to 146 °C,CCc1cc(C(=O)C(c2ccc(O)cc2)c2ccc(O)cc2)cc(C(C)(c2ccc(O)cc2)c2ccc(O)cc2)c1
2,234 to 235 °C,Cn1c(C(=O)N[C@H]2CCCC[C@H]2C(=O)N[C@@H](CCC(N)=O)C(N)=O)cc2ccccc21
3,140 to 147 °C,CCCCCCP1C(O)C(O)P(CCCCCC)C(O)C1O (configuration not stated)
4,195 to 197 °C,CN1CCN(c2nccc(Oc3ccc(NC(=O)c4cc(F)cc(N5CCOCC5)c4)c4ccccc34)n2)CC1
5,56 to 57 °C,CC(C)N(C)c1ncc([N+](=O)[O-])cc1Cl
6,204 to 206 °C,O=C(CCn1cnc2c(=O)[nH]cnc21)NCCc1c[nH]c2ccccc12
7,76 to 78 °C,COC(=O)c1ccc(C#N)s1
8,138 °C,Nc1ccccc1SCC(C(=O)O)c1ccc(C(F)(F)F)cc1 (configuration not stated)
9,233 to 234 °C,CNc1nc(Cl)nc2c(SC)ncnc12
10,110 °C,c1ccc(CCN2Cc3sccc3C(c3ccccc3)C2)cc1 (configuration not stated)
11,110 to 114 °C,COc1ccc(C(C#Cc2cccc(-c3nnc(C)o3)c2)CC(=O)O)cc1OC1CCCC1 (racemic)
12,236 to 238 °C,CCOC(=O)Nc1nc(-c2ccccc2)c(-c2nc3ccccc3c(=O)n2-c2ccccc2Cl)s1
13,209 to 210 °C,COC(=O)Cc1cc(=O)[nH]c2ccccc12
14,168 to 169 °C,Sc1ncc(CCCCc2ccccc2)[nH]1
15,85.5 to 88 °C,C=C(C)c1cnn(-c2ccnc3cc(Cl)ccc23)c1
16,151 to 152 °C,O=c1[nH]cc(Cc2ccccc2)cc1Br
17,114 to 115 °C,COc1ccccc1CCSc1c(O)cc(-c2ccccc2)oc1=O
18,172 to 173 °C,COc1ccc(S(=O)(=O)Nc2cccnc2Nc2ccccc2)cc1
19,286 to 290 °C,CCCCc1ncc(/C=C2\C(=O)NC(=O)N2c2ccccc2)n1Cc1ccc(C(=O)O)cc1
20,144 to 145 °C,C=CCN1C(=O)c2cccc3c(OCCO)ccc(c23)C1=O
21,177 °C,CC(=O)Nc1cc(C)c(OC(C)=O)cc1C
22,243 to 244 °C,O=c1[nH][nH]c(=O)c2c(O)c3ccc(I)cc3nc12
23,170 °C,Nc1cc(CO)cc(S(N)(=O)=O)c1Oc1ccccc1
24,125 to 126 °C,Cc1cnnc2c1C(=O)CC(c1ccsc1)C2 (configuration not stated)
25,192 to 194 °C,Nc1nc(Cl)cc(NCC2(CO)CCC2)n1
26,152 to 154 °C,CN(C)S(=O)(=O)c1cc(-c2csc(=Nc3ccccc3Cl)n2C)ccc1Cl
27,181 to 183 °C,Cc1ccc(NC2=C(C(=O)Nc3ccccc3)C(=O)OC2)cc1
